# Reference: US20250320190A1, “Novel Inhibitors of Leucine Carboxyl Methyltransferase-1 (LCMT-1) and Methods of Use Thereof” (Temple University-Of The Commonwealth System of Higher …, priority 2024, published 2025)
# Experiments:
# Kinetic solubility = format: physicochemical; details: 2% dimethylsulfoxide/PBS, aqueous buffer, kinetic from dmso stock; read-out: Max. Kinetic Solubility
# From the text: (§1) There is no cause for concern at this stage since there are multiple strategies and reagents for enhancing aqueous solubility for animal in vivo studies (Savjani, K. T., A. K. Gajjar and J. K. Savjani, 2012, ISRN Pharm 2012: 195727.). […] While target tissue exposure is dependent on free, unbound fractions in the plasma, plasma protein binding can protect compounds from hepatic metabolism. Thus, in vivo metabolism and excretion are often determined by a balance between these two properties. In vivo half-life is a complicated property impacted upon by multiple factors and is difficult to predict. […] While these numbers are somewhat low for a drug candidate, they are acceptable for proof of concept tool molecules which can be given multiple times per day and at higher doses to saturate metabolism.
# rhLCMT-1 = target: T1, rhLCMT-1 (Homo sapiens, UniProt Q9UIC8); experiment: rhLCMT-1 activity assay (dot immunoblot); format: biochemical; details: each inhibitor 50 μM; 20 μM SAM; 37° C. for 30 minutes
# T1 construct: purchased SignalChem (Richmond, British Columbia, Canada)
# Description: Recombinant human LCMT-1 (rhLCMT-1) and rhPP2Ac were obtained from SignalChem (Richmond, British Columbia, Canada). Methyltransferase assays were performed with 100 ng rhLCMT-1 and 91.62 ng rhPP2Ac (2:1 molar ratio) (28) in reaction buffer containing 20 mM Tris (pH 8.0), 50 mM NaCl, 1 mM EDTA. rhLCMT-1 was incubated with Compound 1 (Chemspace, San Jose, California), Compound 2 (Akos Consulting and Solutions, Amtsgericht, Freiburg, Germany) or sinefungin, a SAM analogue, (Active Motif, Carlsbad, California), each at 50 μM final concentration, for 10 minutes at room temperature. rhPP2Ac was added to the reactions with 20 μM (final concentration) SAM (New England Biolabs, Ipswich, Massachusetts, FIG. 9). […] Reactions were incubated at 37° C. for 30 minutes (FIG. 10). Because the inhibitors gave false positive results with the secondary reactions used in colorimetric and bioluminescent methyltansferase assays, LCMT-1 activity was assessed using dot immunoblots. Reactions were applied to nitrocellulose membranes (Cytiva, Marlborough, Massachusetts). […] Membranes were treated with infrared (IR)-dye anti-mouse antibody (Li-Cor, Lincoln, Nebraska, catalog #926-32210, 1:20,000 dilution) and densities were measured with Li-Cor Image Studio (version 5.2) software. rhLCMT-1 inhibition assays were performed three times, each time with five replicates for each condition.
# [1] = Liver microsomal stability; format: in vitro ADME
# From the text: as §1
# Rosi cells [2] = experiment: Western blots; format: cell-based, human; details: 20 μM, Compound 2 significant at 6 hours
# Description: (§2) MCF7, MDA-MB-231 and Rosi cells were treated with Compound 1 or Compound 2 at a concentration of 20 μM in complete medium, and lysates were harvested after 2, 4, 6, 8 and 12 hours in radioimmunoprecipitation assay buffer containing protease inhibitors (Boster Bio, Pleasanton, California, catalog #AR1182-1) and phosphatase inhibitors (Santa Cruz Biotechnology catalog #sc-45044 and #sc-45045). Protein concentrations were measured with a bicinchoninic acid assay (G-Biosciences, Saint Louis, Missouri). Fifty micrograms of each lysate were used for bis-tris polyacrylamide gel electrophoresis. Resolved lysates were transferred to nitrocellulose membranes. Membranes were blocked with TBS with 5% bovine serum albumin before incubation with primary antibodies.
# (§3) Antibodies obtained from Cell Signaling Technology (Danvers Massachusetts) were, anti-PP2Ac (catalog #2038, 1:1,000 dilution), anti-phospho-adenosine monophosphate-activated protein kinase (pAMPKα2 threonine 172, catalog #2535, 1:1,000 dilution). Antibodies obtained from Proteintech (Rosemont, Illinois) include anti-phospho-receptor-interacting serine/threonine protein kinase-1 antibodies (pRIPK1 serine 161 (catalog #66854-1-Ig, 1:1,000 dilution) and pRIPK1 serine 166 (catalog #28252-1-AP, 1:10,000 dilution), anti-mixed lineage kinase domain like pseudokinase (MLKL, catalog #66675-1-Ig, 1:5,000 dilution), anti-AMPKα2, anti-phospho-acetyl-coenzyme A carboxylase (pACC1 serine 79, catalog #29119-1-AP, 1:1,000 dilution), anti-ACC1 (catalog #21923-1-AP, 1:2,000 dilution) and anti-β-actin (catalog #66009-1-Ig, 1:50,000 dilution). The anti-RIPKI antibody was obtained from AbClonal (Woburn, Massachusetts, catalog #A7414, 1:750 dilution). The anti-phospho-MLKL antibody was obtained from R&D Systems (Minneapolis, Minnesota, 1:1,000 dilution). The LCMT-1 antibody was obtained from Origene (Rockville, Maryland, catalog #TA503127S, 1:2,000 dilution). Appropriate IR-dye secondary antibodies were used (Alexa Fluor® 790-conjugated anti-mouse (catalog #115-655-146, 1:50,000 dilution), Alexa Fluor® 680-conjugated anti-mouse (catalog #115-625-146, 1:50,000 dilution), and Alexa Fluor® 680-conjugated anti-rabbit (catalog #115-625-144, 1:50,000 dilution) were obtained from Jackson ImmunoResearch Laboratories (West Grove, Pennsylvania). Band densities were normalized to β-actin, the endogenous control. At least five replicates were used for statistical analyses.
# MCF7 cells [3] = experiment: Western blots; format: cell-based, human; details: 20 μM, lysates after 2, 4, 6, 8 and 12 hours
# Description: as §2, §3
# MDA-MB-231 cells [4] = experiment: Western blots; format: cell-based, human; details: 20 μM, Compound 2 significant at 4 hours
# Description: as §2, §3
# Plasma protein binding = format: in vitro ADME; details: read-out: Plasma Protein Binding (bound fraction) (converted)
# From the text: as §1
# Plasma stability = format: in vitro ADME; details: mouse plasma; read-out: Plasma Stability (t1/2)
# From the text: as §1
# MCF7 cells [5] = experiment: Cytotoxicity assay (calcein-AM); format: cell-based, human
# Description: (§4) HS-5, HEK-293, MCF7, MDA-MB-231 and Rosi cells were seeded in 96-well optical bottom tissue culture plates (Corning, New York) at a density of 2.5×10^3 cells/well. After 24 hours, the media were changed to media containing LB-100 (Cayman Chemical Company, Ann Arbor, Michigan) or Compound 2 at various concentrations (50-0.31 μM). Control cells were given fresh media. After 48 hours the media were aspirated and plates were washed with warmed Dulbecco's phosphate-buffered saline (DPBS) with calcium and magnesium (Sigma-Aldrich, catalog #D1283). Cells were stained with 3 μM calcein-AM (AAT Bioquest, Pleasanton, California, catalog #22002) in DPBS for 30 minutes in the dark at 37° C. Plates were immediately read with a Biotek fluorescent plate reader (excitation 485 nm, emission 520 nm). The cytotoxicity assays were performed at least three times, each time with six replicates per condition.
# MDA-MB-231 cells [6] = experiment: Cytotoxicity assay (calcein-AM); format: cell-based, human; details: Homo sapiens, MDA-MB-231, 48 h, read-out: Log [μM] EC50 (converted)
# Description: as §4
# Rosi cells [7] = experiment: Cell cycle analysis (BrdU flow cytometry); format: cell-based, human; details: 20 μM, 24 hours
# Description: (§5) MCF7, MDA-MB-231 and Rosi cells were seeded in 6-well tissue culture plates (Celltreat) at a density of 5×10^5 cells per well. After 24 hours, the DMEM was changed to media containing 20 μM LB-100 or Compound 2. Control cells were given fresh media. After 24 hours, cells were labeled with 50 μM bromodeoxyuridine (BrdU, BioGems, Westlake Village, California, catalog #5911439). Cells were lifted with 0.25% trypsin, 2.21 mM ethylenediaminetetraacetic acid (Corning catalog #25-053-CI) after 4 hours and fixed with 70% ethanol overnight at 4° C. Cells were pelleted and cellular DNA was denatured with HCl. After neutralization with 1 M Tris, pH 8.5, cells were labeled with FITC-anti-BrdU (Biolegend, San Diego, California, catalog #364104, 5 μL/100 μL cell suspension) and 7-aminoactinomycin-D (7-AAD, Biolegend, catalog #420404, 1 μL/100 μL cell suspension). Cells were analyzed with a Becton-Dickinson FACSymphony™ flow cytometer. Cell cycle analyses were performed three times.
# MCF7 cells [8] = experiment: Cell cycle analysis (BrdU flow cytometry); format: cell-based, human; details: 20 μM, 24 hours
# Description: as §5
# MDA-MB-231 cells [9] = experiment: Cell cycle analysis (BrdU flow cytometry); format: cell-based, human; details: 20 μM, 24 hours
# Description: as §5
# Rosi cells [10] = experiment: Annexin V assay; format: cell-based, human; details: 5-20 μM, 48 hours
# Description: (§6) MCF7, MDA-MB-231 and Rosi cells were treated with LB-100 and Compound 2 at 5-20 μM concentrations. After 48 hours, cells were lifted with Accutase and washed twice with PBS (pH 7.4) with 10% FBS. Cells were resuspended in annexin V binding buffer (10 mM HEPES (pH 7.4), 140 mM NaCl and 2.5 mM CaCl2)) and labeled with FITC-anti-Annexin V and 7-AAD (Biolegend, FITC Annexin V Apoptosis Detection Kit with 7-AAD, catalog #640922). Cell surface annexin V expression was assessed with flow cytometry.
# MDA-MB-231 cells [11] = experiment: Annexin V assay; format: cell-based, human; details: 5-20 μM, 48 hours
# Description: as §6
# HS-5 cells = experiment: Cytotoxicity assay (calcein-AM); format: cell-based
# Description: as §4
# HEK-293 cells = experiment: Cytotoxicity assay (calcein-AM); format: cell-based
# Description: as §4
# Rosi cells [12] = experiment: Colony forming assay; format: cell-based, human; details: 50-3.25 μM, one week
# Description: (§7) MCF7, MDA-MB-231 and Rosi cells were seeded in 96-well tissue culture plates (Celltreat, Pepperell, Massachusetts) at a density of 90 cells per well (Mayr et al. Int J Mol Sci. 2018; 19(3)). After 24 hours, the media were changed to media containing LB-100 or Compound 2 at various concentrations (50-3.25 μM). Control cells were given fresh media. After one week the media were aspirated and the wells were washed with PBS. Cells were stained with crystal violet solution (0.25 g crystal violet in 20% methanol) for 10 minutes. The wells were washed 6 times with PBS to remove excess crystal violet. Colonies were counted with an ECHO Revolve hybrid microscope at 1.5× magnification. There were ten replicates for each condition.
# MCF7 cells [13] = experiment: Colony forming assay; format: cell-based, human; details: 50-3.25 μM, one week
# Description: as §7
# MDA-MB-231 cells [14] = experiment: Colony forming assay; format: cell-based, human; details: 50-3.25 μM, one week
# Description: as §7
# Rosi cells [15] = experiment: Cytotoxicity assay (calcein-AM); format: cell-based, human
# Description: as §4, with “After 24 hours, the media were changed to media containing LB-100 (Cayman Chemical Company, Ann Arbor, Michigan) or Compound 2 at various concentrations (50-0.31 μM).” left out
# T1 sequence (Q9UIC8 whole entry): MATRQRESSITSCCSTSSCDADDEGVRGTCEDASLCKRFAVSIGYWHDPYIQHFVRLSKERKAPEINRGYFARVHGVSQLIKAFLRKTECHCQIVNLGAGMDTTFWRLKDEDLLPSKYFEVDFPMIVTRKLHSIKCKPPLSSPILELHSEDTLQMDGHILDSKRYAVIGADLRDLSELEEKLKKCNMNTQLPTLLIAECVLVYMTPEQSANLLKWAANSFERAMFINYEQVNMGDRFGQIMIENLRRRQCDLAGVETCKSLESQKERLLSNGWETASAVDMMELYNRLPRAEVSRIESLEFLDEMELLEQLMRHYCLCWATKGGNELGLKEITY
smiles,measurement,setting,value
"O=C(COc1cccc2ccccc12)Nc1ccccc1O [Compound 1, N-(2-Hydroxyphenyl)-2-(1-naphthalenyloxy)acetamide]",solubility kinetic,Kinetic solubility,27.1 µM
same,methylation of rhPP2Ac by rhLCMT-1,rhLCMT-1,did not significantly inhibit PP2Ac methylation
same,half-life,"[1]; human liver microsomes, read-out: Liver Microsomal Stability (t1/2) Human",45.7 min
same,half-life,"[1]; mouse liver microsomes, read-out: Liver Microsomal Stability (t1/2) Mouse",20 min
same,PP2Ac methylation,Rosi cells [2],did not increase PP2Ac methylation
same,PP2Ac methylation,MCF7 cells [3],did not increase PP2Ac methylation
same,PP2Ac methylation,MDA-MB-231 cells [4],did not increase PP2Ac methylation
same,fraction unbound,Plasma protein binding,0.033
same,half-life,Plasma stability,> 180 min
"CN1CCN(C(=O)C2C(C(=O)O)[C@H]3CC[C@@H]2O3)CC1 (some centres unmarked) [LB-100, reference compound]",EC50,"MCF7 cells [5]; Homo sapiens, MCF7, 48 h, read-out: Log [μM] EC50 (converted)",45.7 µM
same,inhibition of survival,"MCF7 cells [5]; MCF7, concentrations tested 50-0.31 μM, 48 hours",Neither LB-100 nor Compound 2 significantly inhibited survival
same,EC50,MDA-MB-231 cells [6],6.76 µM
same,cell cycle effect,Rosi cells [7],induced G2/M-phase arrest
same,cell cycle effect,MCF7 cells [8],induced G0/G1 arrest
same,cell cycle effect,MDA-MB-231 cells [9],induced G2/M-phase arrest
same,apoptosis (cell surface annexin V expression),Rosi cells [10],induced apoptosis
same,apoptosis (cell surface annexin V expression),MDA-MB-231 cells [11],induced apoptosis
same,EC50,"HS-5 cells; HS5, 48 h, read-out: Log [μM] EC50 (converted)",36.3 µM
same,concentration at which cytotoxicity was significant,"HS-5 cells; human, 48 h",20 µM
same,concentration at which survival was significantly inhibited,"HEK-293 cells; HEK-293, 48 hours",20 µM
same,EC50,"HEK-293 cells; Homo sapiens, HEK293, 48 h, read-out: Log [μM] EC50 (converted)",21.4 µM
same,clonogenic colony formation,Rosi cells [12],inhibited colony formation
same,clonogenic colony formation,MCF7 cells [13],inhibited to a lesser extent
same,clonogenic colony formation,MDA-MB-231 cells [14],inhibited colony formation
same,EC50,"Rosi cells [15]; Homo sapiens, 48 h, read-out: Log [μM] EC50 (converted)",21900 µM
same,concentration at which survival was significantly inhibited,"Rosi cells [15]; Rosi, 48 hours",20 µM
